Test results taken from patent publication EP4603105A1, “PHARMACEUTICAL COMPOSITION CONTAINING CYCLIC COMPOUND HAVING SELECTIVE KRAS INHIBITORY EFFECT AGAINST HRAS AND NRAS” (CHUGAI SEIYAKU KABUSHIKI KAISHA, priority 2022, dated 2024).

Tests used:
[1] = target: GDP-bound NRAS wild-type protein (Homo sapiens, UniProt P01111); assay: Binding to NRAS by surface plasmon resonance (SPR), KD and KD ratio to KRAS; details: ratio of KD for GDP-bound NRAS wild-type protein to KD for KRAS
Summary of the method: (§1)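 Recombinant RAS proteins bearing a biotinylated Avi tag and loaded with GDP served as the captured ligand, recaptured fresh every cycle. Binding responses were referenced to an uncoated surface and a buffer-only blank cycle. Dissociation constants were obtained by 1:1 model fitting at 30°C.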

HRAS wild-type protein = HRAS wild-type protein (Homo sapiens, UniProt P01112); assay: Binding to HRAS by surface plasmon resonance (SPR), KD and KD ratio to KRAS; details: ratio of KD for HRAS wild-type protein to KD for KRAS
Summary of the method: as §1

[2] = system: human lung cancer strain NCI-H441; format: cell-based
Summary of the method: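 Signal came from […] measured per well once the reagent was added. Beforehand, cells were cultured at 37°C and 5% carbon dioxide on a compound series serially diluted in dimethyl sulfoxide.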

GDP-bound NRAS wild-type protein, sequence (P01111 whole entry): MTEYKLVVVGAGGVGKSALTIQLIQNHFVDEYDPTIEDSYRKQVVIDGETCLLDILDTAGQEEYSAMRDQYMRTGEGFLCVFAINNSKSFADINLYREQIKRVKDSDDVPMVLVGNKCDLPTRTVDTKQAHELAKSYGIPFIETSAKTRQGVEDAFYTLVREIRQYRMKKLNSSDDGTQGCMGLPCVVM
HRAS wild-type protein, sequence (P01112 whole entry): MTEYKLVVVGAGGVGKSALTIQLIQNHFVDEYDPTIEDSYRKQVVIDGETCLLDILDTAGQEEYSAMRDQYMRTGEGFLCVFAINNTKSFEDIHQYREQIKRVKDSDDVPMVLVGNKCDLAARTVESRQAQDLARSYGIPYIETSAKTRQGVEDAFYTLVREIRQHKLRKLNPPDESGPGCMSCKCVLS

Structure (SMILES) | NRAS /KRAS [1] | HRAS /KRAS (HRAS wild-type protein) | IC50 [2] [nM]
CCO[C@@H]1C[C@H]2C(=O)NC3(CCC3)C(=O)N(C)[C@@H](C3CCCC3)C(=O)N(C)[C@H](C(=O)N(C)C)CC(=O)N(C)[C@@H](CC)C(=O)N[C@@H]([C@@H](C)CC)C(=O)N(C)[C@@H](C)C(=O)N(C)[C@H]3C/C=C\CCN(C3=O)[C@@H](Cc3ccc(C(F)(F)F)cc3)C(=O)N(C)CC(=O)N[C@@H](CCc3cc(F)c(C(F)(F)F)c(F)c3)C(=O)N2C1 [PP1054] | A (a compound having 10 or more and less than 20 is denoted as A) | B (a compound having 3 or more and less than 10 is denoted as B) | 469
CCO[C@@H]1C[C@H]2C(=O)NC3(CCC3)C(=O)N(C)[C@@H](C3CCCC3)C(=O)N(C)[C@H](C(=O)N(C)C)CC(=O)N(C)[C@@H](CC)C(=O)N[C@@H]([C@@H](C)CC)C(=O)N3C[C@H](OCC)C[C@H]3C(=O)N(C)[C@H]3C/C=C\CCN(C3=O)[C@@H](Cc3ccc(C(F)(F)F)cc3)C(=O)N(C)CC(=O)N[C@@H](CCc3cc(F)c(C(F)(F)F)c(F)c3)C(=O)N2C1 [PP1057] | A (a compound having 10 or more and less than 20 is denoted as A) | B (a compound having 3 or more and less than 10 is denoted as B) | 96.9
CCO[C@@H]1C[C@H]2C(=O)NC3(CCC3)C(=O)N(C)[C@@H](C3CCCC3)C(=O)N(C)[C@H](C(=O)N(C)C)CC(=O)N(C)[C@@H](CC)C(=O)N[C@@H]([C@@H](C)CC)C(=O)N3CCSC[C@H]3C(=O)N(C)[C@H]3C/C=C\CCN(C3=O)[C@@H](Cc3ccc(C(F)(F)F)cc3)C(=O)N(C)CC(=O)N[C@@H](CCc3cc(F)c(C(F)(F)F)c(F)c3)C(=O)N2C1 [PP1060] | A (a compound having 10 or more and less than 20 is denoted as A) | A (a compound having 10 or more and less than 20 is denoted as A) | 307
CCO[C@@H]1C[C@H]2C(=O)NC3(CCC3)C(=O)N(C)[C@@H](C3CCCC3)C(=O)N(C)[C@H](C(=O)N(C)C)CC(=O)N(C)[C@@H](CC)C(=O)N[C@@H]([C@@H](C)CC)C(=O)N[C@@H](C)C(=O)N(C)[C@H]3C/C=C\CCN(C3=O)[C@@H](Cc3ccc(C(F)(F)F)cc3)C(=O)N(C)CC(=O)N[C@@H](CCc3cc(F)c(C(F)(F)F)c(F)c3)C(=O)N2C1 [PP1065] | A (a compound having 10 or more and less than 20 is denoted as A) | B (a compound having 3 or more and less than 10 is denoted as B) | 96.7
CC[C@H](C)[C@@H]1NC(=O)[C@H](CC(C)C)N(C)C(=O)C[C@@H](C(=O)N2CCOCC2)N(C)C(=O)[C@H](C2CCCC2)N(C)C(=O)C2(CCC2)NC(=O)[C@@H]2[C@@H](OC)CCN2C(=O)[C@H](CCc2cc(F)c(C(F)(F)F)c(F)c2)NC(=O)CN(C)C(=O)[C@H](Cc2ccc(C(F)(F)F)cc2)N2CCCCC[C@@H](C2=O)N(C)C(=O)CN(C)C1=O [PP1067] | B (a compound having 3 or more and less than 10 is denoted as B) | B (a compound having 3 or more and less than 10 is denoted as B) | 299
CCO[C@H]1CCN2C(=O)[C@H](CCc3cc(F)c(C(F)(F)F)c(F)c3)NC(=O)CN(C)C(=O)[C@H](Cc3ccc(C(F)(F)F)cc3)N3CCCCC[C@@H](C3=O)N(C)C(=O)CN(C)C(=O)[C@H]([C@@H](C)CC)NC(=O)[C@H](CC(C)C)N(C)C(=O)C[C@@H](C(=O)N3CCOCC3)N(C)C(=O)[C@H](C3CCCC3)N(C)C(=O)C3(CCC3)NC(=O)[C@H]12 [PP1068] | A (a compound having 10 or more and less than 20 is denoted as A) | B (a compound having 3 or more and less than 10 is denoted as B) | 121
CCCO[C@H]1CCN2C(=O)[C@H](CCc3cc(F)c(C(F)(F)F)c(F)c3)NC(=O)CN(C)C(=O)[C@H](Cc3ccc(C(F)(F)F)cc3)N3CCCCC[C@@H](C3=O)N(C)C(=O)CN(C)C(=O)[C@H]([C@@H](C)CC)NC(=O)[C@H](CC(C)C)N(C)C(=O)C[C@@H](C(=O)N3CCOCC3)N(C)C(=O)[C@H](C3CCCC3)N(C)C(=O)C3(CCC3)NC(=O)[C@H]12 [PP1069] | A (a compound having 10 or more and less than 20 is denoted as A) | B (a compound having 3 or more and less than 10 is denoted as B) | 127
CCCCO[C@H]1CCN2C(=O)[C@H](CCc3cc(F)c(C(F)(F)F)c(F)c3)NC(=O)CN(C)C(=O)[C@H](Cc3ccc(C(F)(F)F)cc3)N3CCCC[C@@H](C3=O)N(C)C(=O)CN(C)C(=O)[C@H]([C@@H](C)CC)NC(=O)[C@H](CC(C)C)N(C)C(=O)C[C@@H](C(=O)N3CCOCC3)N(C)C(=O)[C@H](C3CCCC3)N(C)C(=O)C3(CCC3)NC(=O)[C@H]12 [PP1071] | B (a compound having 3 or more and less than 10 is denoted as B) | B (a compound having 3 or more and less than 10 is denoted as B) | 24.7
CC[C@H](C)[C@@H]1NC(=O)[C@H](CC(C)C)N(C)C(=O)C[C@@H](C(=O)N2CCOCC2)N(C)C(=O)[C@H](C2CCCC2)N(C)C(=O)C2(CCC2)NC(=O)[C@@H]2[C@@H](OCC3CC3)CCN2C(=O)[C@H](CCc2cc(F)c(C(F)(F)F)c(F)c2)NC(=O)CN(C)C(=O)[C@H](Cc2ccc(C(F)(F)F)cc2)N2CCCC[C@@H](C2=O)N(C)C(=O)CN(C)C1=O [PP1072] | B (a compound having 3 or more and less than 10 is denoted as B) | B (a compound having 3 or more and less than 10 is denoted as B) | 13
CC[C@H](C)[C@@H]1NC(=O)[C@H](CC(C)C)N(C)C(=O)C[C@@H](C(=O)N2CCOCC2)N(C)C(=O)[C@H](C2CCCC2)N(C)C(=O)C2(CCC2)NC(=O)[C@@H]2[C@@H](OCC3CCCC3)CCN2C(=O)[C@H](CCc2cc(F)c(C(F)(F)F)c(F)c2)NC(=O)CN(C)C(=O)[C@H](Cc2ccc(C(F)(F)F)cc2)N2CCCC[C@@H](C2=O)N(C)C(=O)CN(C)C1=O [PP1073] | B (a compound having 3 or more and less than 10 is denoted as B) | B (a compound having 3 or more and less than 10 is denoted as B) | 83.7
CC[C@H](C)[C@@H]1NC(=O)[C@H](CC(C)C)N(C)C(=O)C[C@@H](C(=O)N2CCOCC2)N(C)C(=O)[C@H](C2CCCC2)N(C)C(=O)C2(CCC2)NC(=O)[C@@H]2[C@@H](OC)CCN2C(=O)[C@H](CCc2cc(F)c(C(F)(F)F)c(F)c2)NC(=O)CN(C)C(=O)[C@H](Cc2ccc(C(F)(F)F)cc2)N2CCCC[C@@H](C2=O)N(C)C(=O)CN(C)C1=O [PP1075] | B (a compound having 3 or more and less than 10 is denoted as B) | B (a compound having 3 or more and less than 10 is denoted as B) | 21.8
